PMC6753678, “Fueling Open Innovation for Malaria Transmission-Blocking Drugs: Hundreds of Molecules Targeting Early Parasite Mosquito Stages” (Frontiers in Microbiology, 2019)
Like-named read-outs stand apart in the source and are kept apart here.

What was measured:
[1] = test system: P. falciparum female gametocytes; assay: P. falciparum female gametogenesis assay (Pf FGAA); settings: 1: YES; 0: NO
[2] = test system: P. falciparum female gametocytes; set-up: method as in Miguel-Blanco et al 2017; settings: ref Miguel-Blanco et al 2017, read-out: Pf FGAA IC50, cited from earlier work
[3] = test system: P. falciparum late stage (stages IV-V) gametocytes; assay: P. falciparum late stage gametocyte ATP depletion assay (Pf GC-ATP); settings: 1: YES; 0: NO
[4] = test system: P. falciparum late stage (stages IV-V) gametocytes; set-up: method as in Almela et al 2016; settings: ref Almela et al 2016, read-out: Pf GCT ATP IC50, cited from earlier work
[5] = test system: HepG2 cells; settings: cited from earlier work
[6] = test system: HepG2 cells; assay: HepG2 cytotoxicity assay
How it was run: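 HepG2 cells, 2,500 per well in MEM with 10% FBS and 1% NEAA, exposed to compounds for 48 h at 37°C, 5% CO2. Viability read by fluorescence; percent inhibition relative to 50 μM doxorubicin and DMSO controls.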

[7] = HepG2 values of the three screens unified
[8] = value reported with the Pf FGAA screen, ref Miguel-Blanco et al 2017
[9] = value reported with the Pf GCT ATP screen, ref Almela et al 2016
[10] = HepG2 cytotoxicity unified across the three screens

| Structure (SMILES) | Is compound selective in assay? Pf FGAA active? [1] | IC50 [2] [nM] | Is compound selective in assay? Pf GC-ATP active? [3] | IC50 [4] [nM] | HepG2 cytoxicity (Pf GCT ATP screen) ([5]; ref Almela et al 2016) [µM] | HepG2 cytoxicity (Pf FGAA screen) ([5]; ref Miguel-Blanco et al 2017) [µM] | Unified cytotox [6, 7] [µM] | IC50 ([2]; TCAMS screen comparison) [nM] | IC50 ([4]; TCAMS screen comparison) [nM] | HepG2 cytoxicity [5, 8] [µM] | HepG2 cytoxicity [5, 9] [µM] | Unified cytotox [6, 10] [µM] |
| --- | --- | --- | --- | --- | --- | --- | --- | --- | --- | --- | --- | --- |
| CCOc1cc(CNCCCCCCNCc2cc(OCC)c(OCC)c3ccccc23)c2ccccc2c1OCC.CS(=O)(=O)O [TCMDC-137939] | 0 (0: NO) | 1780 | 0 (0: NO) | 750 | 2.7 | 2.00 | 2.35 | – | – | – | – | – |
| CS(=O)(=O)O.CSc1ccc2ccccc2c1CCNCCCCNCCc1c(SC)ccc2ccccc12 [TCMDC-137763] | 0 (0: NO) | – | 0 (0: NO) | – | – | – | – | 1010 | 230 | 1.82 | 1.65 | 1.73 |
| COc1c(C2CCN(CCN3CCC(CNC(=O)c4ccc(-c5ccc(C#N)cc5)cc4)CC3)CC2)ccc2c1CCCC2 [TCMDC-138859] | 0 (0: NO) | – | 0 (0: NO) | – | – | – | – | 1460 | 1170 | 3.43 | 3.3 | 3.36 |
| CN1CCN(CCCN(Cc2cccc(-c3ccc(CNC4CCCC4)cc3)c2)C(=O)/C=C/c2ccccc2)CC1.O=C(O)C(F)(F)F [TCMDC-140544] | 0 (0: NO) | – | 0 (0: NO) | – | – | – | – | 1360 | 740 | 7.70 | 6.39 | 7.04 |
| CCCCN(CCCC)/C(=N/C(=N)NCc1ccc(Cl)c(Cl)c1)NCCCCCCN/C(=N\C(=N)NCc1ccc(Cl)c(Cl)c1)N(CCCC)CCCC [TCMDC-131821] | 0 (0: NO) | – | 1 (1: YES) | – | – | – | – | 2510 | 620 | 13.96 | 12.4 | 13.18 |
| COc1ccc2c(c1CCNCCCCNCCc1c(OC)ccc3c1CCCC3)CCCC2.CS(=O)(=O)O [TCMDC-137324] | 0 (0: NO) | – | 0 (0: NO) | – | – | – | – | 640 | 150 | 1.68 | 0.75 | 1.21 |
| CCCCOc1cc(OC)c2ccccc2c1CCNCCCCNCCc1c(OCCCC)cc(OC)c2ccccc12.CS(=O)(=O)O [TCMDC-137845] | 0 (0: NO) | 760 | 0 (0: NO) | 500 | 3 | 1.97 | 2.49 | – | – | – | – | – |
| CN1CCN(CCCNCc2cccc(Nc3nccc(Nc4ccc(Oc5ccccc5)cc4)n3)c2)CC1 [TCMDC-138616] | 0 (0: NO) | – | 1 (1: YES) | – | – | – | – | 980 | 320 | 4.68 | 5.17 | 4.92 |
| CN(C)CCCOc1ccc(CN2CCC(c3c[nH]c4ccc(NCC5CCCCC5)cc34)CC2)cc1.O=C(O)C(F)(F)F [TCMDC-140737] | 1 (1: YES) | – | 1 (1: YES) | – | – | – | – | 560 | 500 | 5.48 | 6.8 | 6.14 |
| COc1cccc(-c2csc(C(=O)NCC3CCN(Cc4ccc(C(C)(C)C)cc4)C3)c2)c1.O=C(O)C(F)(F)F (stereo not drawn) [TCMDC-134447] | 1 (1: YES) | – | 1 (1: YES) | – | – | – | – | 650 | 230 | 5.78 | 9.5 | 7.64 |
| COc1ccc2cc(CNCCCCCCNCc3ccc4cc(OC)ccc4c3)ccc2c1.CS(=O)(=O)O [TCMDC-137797] | 0 (0: NO) | – | 0 (0: NO) | – | – | – | – | 590 | 670 | 1.55 | 3 | 2.27 |
| C=CCN(C(=O)c1ccc(Cl)c([N+](=O)[O-])c1)c1nc(-c2ccccc2)cs1 [TCMDC-124436] | 1 (1: YES) | – | 1 (1: YES) | – | – | – | – | 130 | 110 | >100 | >25 | 100.00 |
| CC(Cc1ccc(CNC(=O)c2ccc(CC(C)NCCc3cccc(Cl)c3)cc2)cc1)NCCc1cccc(Cl)c1 (stereo not drawn) [TCMDC-139659] | 0 (0: NO) | – | 0 (0: NO) | – | – | – | – | 860 | 570 | 2.26 | 3.15 | 2.71 |
| CCc1c(CCNCCCCCCNC(C)(C)Cc2ccc3c(c2CC)OCO3)ccc(OC)c1OC.Cl [TCMDC-132055] | 0 (0: NO) | – | 1 (1: YES) | – | – | – | – | 1220 | 270 | 4.27 | 4.37 | 4.32 |
| COc1cc(NCCCNCc2cn(Cc3cc(Br)cc(Br)c3)c3ccccc23)nc2ccccc12 [TCMDC-140677] | 0 (0: NO) | – | 0 (0: NO) | – | – | – | – | 860 | 590 | 3.94 | 6.13 | 5.03 |
| COc1cc2c(cc1CCNCCCCNCCc1cc3c(cc1OC)CCCC3)CCCC2.CS(=O)(=O)O [TCMDC-137319] | 0 (0: NO) | – | 1 (1: YES) | – | – | – | – | 890 | 80 | 1.86 | <1.56 | 1.86 |
| COc1cc2nc(N3CCC(CCCC4CCNCC4)CC3)nc(NCc3ccccn3)c2cc1OC.O=C(O)C(F)(F)F [TCMDC-138494] | 0 (0: NO) | – | 1 (1: YES) | – | – | – | – | 6860 | 400 | 18.51 | 10.59 | 14.55 |
| COc1ccc2c(OC)c(CNCCCCCCNCc3ccc4cc(OC)ccc4c3OC)ccc2c1.CS(=O)(=O)O [TCMDC-137953] | 0 (0: NO) | – | 0 (0: NO) | – | – | – | – | 1000 | 1540 | 2.11 | 3.2 | 2.66 |
| CCN(CC)CCN(Cc1ccc(-c2ccc(C(F)(F)F)cc2)cc1)C(=O)Cn1cc(Cc2cnn(C)c2)c(=O)nc1/C=C/c1cccc(F)c1F [TCMDC-140964] | 1 (1: YES) | – | 1 (1: YES) | – | – | – | – | 870 | 170 | 9.69 | 14.4 | 12.05 |
| CCN(CC)CCCn1c(N)c(-c2nc3ccccc3[nH]2)c2nc(C#N)c(C#N)nc21 [TCMDC-123680] | 0 (0: NO) | – | 1 (1: YES) | – | – | – | – | 740 | 140 | 4.27 | 8.7 | 6.48 |
| COc1cc2nc(NCc3cccc(CNC(=O)c4ccc(-c5ccc(C(C)=O)cc5)cc4)c3)nc(N)c2cc1OC.O=C(O)C(F)(F)F [TCMDC-138177] | 0 (0: NO) | – | 0 (0: NO) | – | – | – | – | 4730 | 2000 | 6.82 | 9.5 | 8.16 |
| Cl.c1ccc2c(C3CCN(CCCCOc4ccc5c(c4)CCN(CC4CC4)CC5)CC3)c[nH]c2c1 [TCMDC-136244] | 0 (0: NO) | – | 0 (0: NO) | – | – | – | – | 1150 | 710 | 5.15 | 6.81 | 5.98 |
| Fc1ccc(NC(S)=NN=Cc2ccccn2)cc1 [TCMDC-125521] | 1 (1: YES) | – | 1 (1: YES) | – | – | – | – | 27.1 | 120 | >100 | 23.35 | 100.00 |
| NCc1ccc(CNCc2cccc(-c3ccc(-c4nc5cc(C(F)(F)F)ccc5[nH]4)cc3)c2)cc1.O=C(O)C(F)(F)F [TCMDC-132811] | 1 (1: YES) | – | 1 (1: YES) | – | – | – | – | 830 | 860 | 14.65 | 24.3 | 19.47 |
